From EP0739882B1, “Novel aconitine compounds and analgesic/anti-inflammatory agent containing the same” (SANWA SHOYAKU KABUSHIKI KAISHA, priority 1991, dated 1993)

Assays:
[1] = Property and solubility (qualitative solubility in solvents); type: physicochemical; settings: for Solubility: solvents in which insoluble: hexane and water
[2] = Acute toxicity (LD50, s.c.); design: species or system mice; settings: mouse, in vivo, sc, mortality during 72 hours, Litchfield-Wilcoxon, read-out: LD50 value, mg/kg (95 % confidence limits)
Protocol: Experiment example 3 (Acute toxicity)
Male mice of the Std:ddY Strain (20 - 25g) were used. The LD50 values were calculated using the method of Litchfield-Wilcoxon from the mortality during 72 hours after test compound was administered s.c. The results are shown in Table 3.

[3] = system: Male mice of the Std:ddY Strain; assay: Analgesic activity by the acetic acid-induced writhing method; type: in vivo; settings: Mus musculus; test compound s.c. 30 minutes before 0.7 % acetic acid i.p.; writhing counted for 10 minutes; Litchfield-Wilcoxon; 95 % confidence limits in brackets
Protocol: Experiment example 1 (Analgesic action)
Measurement of analgesic activity by the acetic acid-induced writhing method.
Male mice of the Std:ddY Strain (20 - 25g) were used. All mice were maintained at room temperature of 24 - 25 °C on a 12 hours light and dark cycle and were given food and water ad libitum. Test compound was used in 3 % suspension in gum arabic, 0.7 % acetic acid in 0.9 % physiological saline solution was injected i.p. (10ml / kg) at 30 minutes after test compound was administered s.c. After 10 minutes, the number of writhing movements was counted for a period of 10 minutes. 3 % gum arabic solution in 0.9 % physiological saline solution was used as a negative control. The ED50 values were calculated in accordance with the Litchfield-Wilcoxon's method based on judging to be positive in case of half and under the writhing number of negative control group.

| Compound | Solubility: solvents in which soluble [1] | Solubility: solvents in which insoluble [1] | LD50 at 72 h [2] [mg/kg] | ED50 [3] [mg/kg] |
| --- | --- | --- | --- | --- |
| 3,8-dideoxy-14-O-m-chlorobenzoylaconine | Soluble in ether, chloroform, benzene, ethanol, methanol, ethylacetate, pyridine and dimethyl sulfoxide | Insoluble in hexane and water |  |  |
| 3,13-dideoxy-14-O-m-chlorobenzoylaconine | Soluble in ether, chloroform, benzene, ethanol, methanol, ethylacetate, pyridine and dimethyl sulfoxide | Insoluble in hexane and water |  |  |
| 3-deoxy-14-O-m-chlorobenzoylaconine | Soluble in ether, chloroform, benzene, ethanol, methanol, ethylacetate, pyridine and dimethyl sulfoxide | Insoluble in hexane and water |  |  |
| 14-O-m-chlorobenzoylaconine | Soluble in ether, chloroform, benzene, ethanol, methanol, ethylacetate, pyridine and dimethyl sulfoxide | Insoluble in hexane and water |  |  |
| CCN1CC2(COC)CCC(OC)C34C5CC6C(OC)C(O)C(C5C6OC(=O)c5cccc(Cl)c5)C(C(OC)C23)C14 (stereo not shown) [3,8,13-trideoxy-14-O-m-chlorobenzoylaconine] | Soluble in ether, chloroform, benzene, ethanol, methanol, ethylacetate, pyridine and dimethyl sulfoxide | Insoluble in hexane and water |  |  |
| CCN1CC2(COC)CCC(OC)C34C5CC6C(OC)C(=O)C(C5C6OC(=O)c5cccc(Cl)c5)C(C(OC)C23)C14 (stereo not drawn) [3,13-dideoxy-14-O-m-chlorobenzoyl-16-epi-pyroaconine] | Soluble in ether, chloroform, benzene, ethanol, methanol, ethylacetate, pyridine and dimethyl sulfoxide | Insoluble in hexane and water | > 20 | 11 |
| CCN1CC2(COC)CCC(OC)C34C5CC6(O)C(OC)C(=O)C(C5C6OC(=O)c5cccc(Cl)c5)C(C(OC)C23)C14 (stereo not drawn) [3-deoxy-14-O-m-chlorobenzoyl-16-epi-pyroaconine] | Soluble in ether, chloroform, benzene, ethanol, methanol, ethylacetate, pyridine and dimethyl sulfoxide | Insoluble in hexane and water | > 20 | 10.1 |
| CCN1CC2(COC)C(O)CC(OC)C34C5CC6(O)C(OC)C(=O)C(C5C6OC(=O)c5cccc(Cl)c5)C(C(OC)C23)C14 (stereo not drawn) [14-O-m-chlorobenzoyl-16-epi-pyroaconine] | Soluble in ether, chloroform, benzene, ethanol, methanol, ethylacetate, pyridine and dimethyl sulfoxide | Insoluble in hexane and water | > 20 | 11.9 |
| CCN1CC2(COC)C(O)CC(OC)C34C5CC6(O)C(OC)C(O)C(O)(C5C6OC(=O)c5ccc(Br)cc5)C(C(OC)C23)C14 (stereo not shown) [14-O-p-bromobenzoylaconine] | Soluble in ether, chloroform, benzene, ethanol, methanol, acetone, ethylacetate, pyridine and dimethyl sulfoxide | Insoluble in hexane and water | > 30 | 6.42 |
| COCC12CN(C)C3C4C(OC)C1C3(C(OC)CC2O)C1CC2(O)C(OC)C(O)C4(O)C1C2OC(=O)c1ccc(Cl)cc1 (stereo not shown) [14-O-p-chlorobenzoylmesaconine] | Soluble in ether, chloroform, benzene, ethanol, methanol, acetone, ethylacetate, pyridine and dimethyl sulfoxide | Insoluble in hexane and water | > 30 | 5.85 |
| CCN1CC2(COC)C(O)CC(OC)C34C5CC6(O)C(OC)C(O)C(O)(C5C6OC(=O)c5ccc(F)cc5)C(C(OC)C23)C14 (stereo not shown) [14-O-p-fluorobenzoylaconine] | Soluble in ether, chloroform, benzene, ethanol, methanol, acetone, ethylacetate, pyridine and dimethyl sulfoxide | Insoluble in hexane and water | > 30 | 8.26 |
